Consider 2 compounds from ChEMBL document CHEMBL2401670, “Synthesis and biological evaluation of rhodanine derivatives bearing a quinoline moiety as potent antimicrobial agents” (Bioorg Med Chem Lett, 2013).

Experiment [1] has as its system Staphylococcus aureus. In words: Ratio of norfloxacin MIC to compound MIC for quinolone-resistant Staphylococcus aureus CCARM 3519. It is filed as functional.
Experiment [2] relates to Staphylococcus aureus. Description: Ratio of norfloxacin MIC to compound MIC for methicillin-resistant Staphylococcus aureus CCARM 3167. The experiment is classed as functional.
In the next experiment the test system is Escherichia coli. Description: Antibacterial activity against Escherichia coli CCARM 1356 after 24 hrs by broth microdilution method. It is filed as functional. As to conditions: CCARM 1356, 24 h. Background: Broth dilution looks for growth in wells or tubes with falling amounts of substance.
For experiment [3], the system named is Staphylococcus aureus. In words: Ratio of gatifloxacin MIC to compound MIC for quinolone-resistant Staphylococcus aureus CCARM 3519. The experiment is classed as functional.
The test system of experiment [4] is Staphylococcus aureus. In words: Antibacterial activity against quinolone-resistant Staphylococcus aureus CCARM 3505 after 24 hrs by broth microdilution method. The experiment is classed as functional. The following applies: CCARM 3505, 24 h.
Experiment [5] relates to Staphylococcus aureus. In words: Ratio of gatifloxacin MIC to compound MIC for quinolone-resistant Staphylococcus aureus CCARM 3505. The experiment is classed as functional.
Experiment [6] relates to Staphylococcus aureus. Description: Antibacterial activity against methicillin-resistant Staphylococcus aureus CCARM 3167 after 24 hrs by broth microdilution method. It is filed as functional. As to conditions: CCARM 3167, 24 h.
Experiment [7] deals with Staphylococcus aureus. Description: Ratio of moxifloxacin MIC to compound MIC for quinolone-resistant Staphylococcus aureus CCARM 3505. It is filed as functional.
Another experiment relates to HeLa. Description: Cytotoxicity against human HeLa cells after 48 hrs by MTT assay. It is filed as cell-based. Background: Tetrazolium dyes change colour on reduction, which living cells bring about.
The subject of experiment [8] is Staphylococcus aureus. In words: Ratio of norfloxacin MIC to compound MIC for methicillin-resistant Staphylococcus aureus CCARM 3506. It is filed as functional.
Experiment [9] deals with Staphylococcus aureus. In words: Antibacterial activity against methicillin-resistant Staphylococcus aureus CCARM 3506 after 24 hrs by broth microdilution method. It is filed as functional. The following applies: CCARM 3506, 24 h.
The test system of experiment [10] is Staphylococcus aureus. Description: Antibacterial activity against Staphylococcus aureus KCTC 503 after 24 hrs by broth microdilution method. The experiment is classed as functional. As to conditions: KCTC 503, 24 h.
Experiment [11] relates to Staphylococcus aureus. Description: Antibacterial activity against Staphylococcus aureus KCTC 209 after 24 hrs by broth microdilution method. The experiment is classed as functional. As to conditions: KCTC 209, 24 h.
Experiment [12] concerns Staphylococcus aureus. In words: Antibacterial activity against Staphylococcus aureus RN4220 after 24 hrs by broth microdilution method. As to conditions: RN4220, 24 h. The experiment is classed as functional.
Experiment [13] concerns Staphylococcus aureus. Description: Ratio of moxifloxacin MIC to compound MIC for quinolone-resistant Staphylococcus aureus CCARM 3519. The experiment is classed as functional.
In experiment [14] the test system is Staphylococcus aureus. In words: Antibacterial activity against quinolone-resistant Staphylococcus aureus CCARM 3519 after 24 hrs by broth microdilution method. The experiment is classed as functional. The following applies: CCARM 3519, 24 h.
In experiment [15] the test system is Staphylococcus aureus. In words: Ratio of norfloxacin MIC to compound MIC for quinolone-resistant Staphylococcus aureus CCARM 3505. It is filed as functional.

SMILES strings stand for the structures. Values after ≈ are worked out from the molar mass of the structure shown. A value given as a limit tells only on which side of the number the result lay.

As for `Cc1ccc(COc2ccc3nc(Cl)c(/C=C4\SC(=S)N([C@@H](Cc5ccccc5)C(=O)O)C4=O)cc3c2)cc1`, the Ratio in the experiment with Staphylococcus aureus [1], with Staphylococcus aureus [2], in the experiment with Staphylococcus aureus [3], in the experiment with Staphylococcus aureus [5], with Staphylococcus aureus [7] and with Staphylococcus aureus [8] was 4 throughout. In addition, the Ratio in the experiment with Staphylococcus aureus [13] and with Staphylococcus aureus [15] was 4 each time. Besides, the minimum inhibitory concentration (MIC) (commonly the lowest concentration found to suppress growth) in the experiment with Escherichia coli is more than 64 µg/mL; against Staphylococcus aureus [4], 1 µg/mL (≈ 1.74 µM); against Staphylococcus aureus [6] it was 1 µg/mL (≈ 1.74 µM); with Staphylococcus aureus [9], 1 µg/mL (≈ 1.74 µM); against Staphylococcus aureus [10] it was 8 µg/mL (≈ 13.9 µM); against Staphylococcus aureus [11], 8 µg/mL (≈ 13.9 µM). Moreover, the values for the MIC against Staphylococcus aureus [12] and against Staphylococcus aureus [14] were 2 µg/mL (≈ 3.48 µM) and 1 µg/mL (≈ 1.74 µM), respectively. In addition, in the experiment on HeLa, the half-inhibitory concentration (IC50) (usually the point on the concentration scale where inhibition reaches its midpoint) is 13.3 µg/mL (≈ 23.1 µM).

Take `CC(C)C[C@@H](C(=O)O)N1C(=O)/C(=C/c2cc3cc(OCc4ccc(Cl)cc4)ccc3nc2Cl)SC1=S`: the Ratio in the experiment on Staphylococcus aureus [1], in the experiment with Staphylococcus aureus [2], with Staphylococcus aureus [3], in the experiment on Staphylococcus aureus [5], in the experiment on Staphylococcus aureus [7] and in the experiment with Staphylococcus aureus [8] was 4 throughout. Besides, the Ratio with Staphylococcus aureus [13] and in the experiment with Staphylococcus aureus [15] was 4 throughout. The MIC against Escherichia coli was more than 64 µg/mL; against Staphylococcus aureus [4], 1 µg/mL (≈ 1.78 µM); against Staphylococcus aureus [6], 1 µg/mL (≈ 1.78 µM); against Staphylococcus aureus [9] it was 1 µg/mL (≈ 1.78 µM); in the experiment with Staphylococcus aureus [10] it was 4 µg/mL (≈ 7.12 µM); with Staphylococcus aureus [11] it was 4 µg/mL (≈ 7.12 µM). Further, the MIC in the experiment with Staphylococcus aureus [12] and in the experiment on Staphylococcus aureus [14] was 1 µg/mL (≈ 1.78 µM) each time.
